According to patent US9133179B2, “2-methoxy-pyridin-4-yl-derivatives” (Actelion Pharmaceuticals Ltd., priority 2011, dated 2015):

Assays:
[1] = target: T1, human S1P1 (EDG1) receptor (Homo sapiens, UniProt P21453); test: S1P1 β-arrestin recruitment (Tango) assay to determine EC50 values; assay type: cell-based; settings: Tango-EDG1 bla U2OS cells, 16 h incubation
T1 construct: host or cells: U2OS (Tango EDG1-bla U2OS)
Source text: S1P1 β-Arrestin Recruitment (Tango) Assay to Determine EC50 Values
Upon ligand activation, G protein-coupled receptors (GPCR) trigger two pathways that independently transduce signals to the cell: one through heterotrimeric GTP-binding proteins (G proteins) and one through β-arrestins. Agonist-induced GPCRs recruit β-arrestin proteins, which then bind to the carboxy-terminal domain of ligand-activated GPCRs. The amount of β-arrestin recruitment can be used to assess the potency and efficacy of GPCR activating ligands.
To measure the potency and efficacy of compounds as S1P1 (EDG1) receptor agonists, Tango™-EDG1 bla U2OS cells (Invitrogen, USA, Catalog #K1520) are used. The Tango™ GPCR technology is based on GeneBLAzer β-lactamase reporter cell assays, which uses a mammalian-optimized β-lactamase reporter gene (bla) combined with a FRET-enabled substrate. The host cells, U2OS, stably express a human S1P1 (EDG1) receptor/transcription factor (TF) fusion protein. The cells also express a recombinant protease tagged β-arrestin protein, which is recruited to the S1P1 receptor upon ligand stimulation and specifically cleaves the S1P1-TF fusion protein. The released TF activates the β-lactamase (bla) reporter gene. To measure the reporter gene activity, cells are loaded with a fluorescent substrate containing two chemically coupled fluorophores, coumarin and fluorescein. […] In the presence of bla, the chemical bond is cleaved and FRET is inhibited. […] The amount of β-arrestin recruitment is proportional to the increase in blue fluorescence.
Tango™-EDG1 bla U2OS cells are cultivated in McCoy's 5A containing 10% dialyzed FBS, 0.1 mM NEAA, 25 mM HEPES, 1 mM sodium pyruvate, 1% Penicillin/Streptomycin, 200 μg/ml zeocin, 50 μg/ml hygromycin and 100 μg/ml geneticin (Invitrogen, USA). Cells are detached with trypsin, resuspended in medium and then counted.
Compounds (10 mM stock in DMSO) are diluted first in DMSO. The pre-diluted compounds solutions are then transferred into Assay Medium/0.1% fatty acid free BSA to reach a fourfold concentrated compound stock, which is applied to the cells to reach the final compound concentrations that range from 10 μM to 0.0005 nM (0.5% final DMSO). Cells are then incubated for 16 h at 37° C. and 5% CO2.

circulating lymphocytes = test: Assessment of in vivo efficacy: circulating lymphocytes after oral administration to Wistar rats; set-up: species or system rat; settings: Rattus norvegicus, Lymphocyte, normotensive male Wistar rats, compared to vehicle group, read-out: Lymphocyte counts; for change in vivo at 10 mg/kg: 6 h after oral administration of 10 mg/kg
Method: Assessment of In Vivo Efficacy
The efficacy of the compounds of Formula (I) is assessed by measuring the circulating lymphocytes after oral administration of 3 to 30 mg/kg of a compound of Formula (I) to normotensive male Wistar rats. The animals are housed in climate-controlled conditions with a 12 h-light/dark cycle, and have free access to normal rat chow and drinking water. […] Full blood is subjected to hematology using Advia Hematology system (Bayer Diagnostics, Zurich, Switzerland).
All data are presented as mean±SEM. Statistical analyses are performed by analysis of variance (ANOVA) using Statistica (StatSoft) and the Student-Newman-Keuls procedure for multiple comparisons. The null hypothesis is rejected when p<0.05.

T1 sequence (P21453 whole entry): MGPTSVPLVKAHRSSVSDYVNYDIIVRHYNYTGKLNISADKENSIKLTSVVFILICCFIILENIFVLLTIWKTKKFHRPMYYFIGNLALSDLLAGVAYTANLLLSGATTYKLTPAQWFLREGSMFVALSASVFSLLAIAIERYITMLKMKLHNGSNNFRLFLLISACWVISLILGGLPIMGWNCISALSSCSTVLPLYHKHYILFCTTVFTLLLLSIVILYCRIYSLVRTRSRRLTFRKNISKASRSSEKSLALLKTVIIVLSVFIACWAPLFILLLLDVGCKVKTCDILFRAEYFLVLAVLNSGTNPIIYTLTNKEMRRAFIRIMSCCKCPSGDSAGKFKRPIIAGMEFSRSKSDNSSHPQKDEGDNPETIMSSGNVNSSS

Row | EC50 [1] [nM] | Compound | change in vivo at 10 mg/kg (circulating lymphocytes) [%] | change in vivo at 3 mg/kg (circulating lymphocytes; 6 h after an oral dose of 3 mg/kg) [%]
1 | 1.5 | CCc1cc(-c2noc(-c3cc(OC)nc(C4CCCC4)c3)n2)cc(C)c1OCCCN(C)CC(=O)O [Example 20, 2-((3-(4-(5-(2-Cyclopentyl-6-methoxypyridin-4-yl)-1,2,4-oxadiazol-3-yl)-2-ethyl-6-methylphenoxy)propyl)(methyl)amino)acetic acid] | -57 | 
2 | 0.2 | COc1cc(-c2nc(-c3cc(Cl)c(OCCNCCC(=O)O)c(OC)c3)no2)cc(C2CCCC2)n1 [Example 37, 3-((2-(2-Chloro-4-(5-(2-cyclopentyl-6-methoxypyridin-4-yl)-1,2,4-oxadiazol-3-yl)-6-methoxyphenoxy)ethyl)amino)propanoic acid] | -71 | 
3 | 0.659 | CCc1cc(-c2noc(-c3cc(OC)nc(C4CCCC4)c3)n2)cc(C)c1OCCCN(C)CCC(=O)O [Example 21, 3-((3-(4-(5-(2-Cyclopentyl-6-methoxypyridin-4-yl)-1,2,4-oxadiazol-3-yl)-2-ethyl-6-methylphenoxy)propyl)(methyl)amino)propanoic acid] | -74 | 
4 | 0.2 | CCc1cc(-c2nnc(-c3cc(OC)nc(C4CCCC4)c3)o2)cc(C)c1OCCNCCC(=O)O [Example 62, 3-((2-(4-(5-(2-Cyclopentyl-6-methoxypyridin-4-yl)-1,3,4-oxadiazol-2-yl)-2-ethyl-6-methylphenoxy)ethyl)amino)propanoic acid] | -63 | 
5 | 0.1 | COc1cc(-c2nc(-c3cc(C)c(OCCNCCC(=O)O)c(Cl)c3)no2)cc(C2CCCC2)n1 [Example 43, 3-((2-(2-Chloro-4-(5-(2-cyclopentyl-6-methoxypyridin-4-yl)-1,2,4-oxadiazol-3-yl)-6-methylphenoxy)ethyl)amino)propanoic acid] | -62 | 
6 | 1.1 | CCc1cc(-c2nnc(-c3cc(OC)nc(C4CCCC4)c3)o2)cc(C)c1OCCN1CC(C(=O)O)C1 [Example 63, 1-(2-(4-(5-(2-Cyclopentyl-6-methoxypyridin-4-yl)-1,3,4-oxadiazol-2-yl)-2-ethyl-6-methylphenoxy)ethyl)azetidine-3-carboxylic acid] | -71 | 
7 | 0.1 | CCc1cc(-c2nnc(-c3cc(OC)nc(C4CCCC4)c3)o2)cc(C)c1OCCCC(=O)O [Example 61, 4-(4-(5-(2-Cyclopentyl-6-methoxypyridin-4-yl)-1,3,4-oxadiazol-2-yl)-2-ethyl-6-methylphenoxy)butanoic acid] | -27 | 
8 | 1.2 | CCc1cc(-c2nc(-c3cc(OC)nc(C4CCCC4)c3)no2)cc(C)c1OCC(=O)O [Example 53, 2-(4-(3-(2-Cyclopentyl-6-methoxypyridin-4-yl)-1,2,4-oxadiazol-5-yl)-2-ethyl-6-methylphenoxy)acetic acid] | -72 | 
9 | 0.3 | CCc1cc(-c2noc(-c3cc(OC)nc(C4CCCC4)c3)n2)cc(C)c1OCCCNCC(=O)O [Example 18, 2-((3-(4-(5-(2-Cyclopentyl-6-methoxypyridin-4-yl)-1,2,4-oxadiazol-3-yl)-2-ethyl-6-methylphenoxy)propyl)amino)acetic acid] | -24 | 
10 | 0.1 | CCc1cc(-c2noc(-c3cc(OC)nc(C4CCCC4)c3)n2)cc(C)c1OCCNCCCC(=O)O [Example 39, 4-((2-(4-(5-(2-Cyclopentyl-6-methoxypyridin-4-yl)-1,2,4-oxadiazol-3-yl)-2-ethyl-6-methylphenoxy)ethyl)amino)butanoic acid] | -66 | 
11 | 0.05 | CCc1cc(-c2noc(-c3cc(OC)nc(C4CCCC4)c3)n2)cc(C)c1OCCNC(=O)CC(=O)O [Example 49, 3-((2-(4-(5-(2-Cyclopentyl-6-methoxypyridin-4-yl)-1,2,4-oxadiazol-3-yl)-2-ethyl-6-methylphenoxy)ethyl)amino)-3-oxopropanoic acid] |  | -49
12 | 1.7 | COc1cc(-c2nc(-c3cc(Cl)c(OCCCC(=O)NCCO)c(OC)c3)no2)cc(C2CCCC2)n1 [Example 36, 4-(2-Chloro-4-(5-(2-cyclopentyl-6-methoxypyridin-4-yl)-1,2,4-oxadiazol-3-yl)-6-methoxyphenoxy)-N-(2-hydroxyethyl)butanamide] | -73 | 
13 | 0.4 | COc1cc(-c2nc(-c3cc(C)c(OCC(=O)NCCO)c(Cl)c3)no2)cc(C2CCCC2)n1 [Example 42, 2-(2-Chloro-4-(5-(2-cyclopentyl-6-methoxypyridin-4-yl)-1,2,4-oxadiazol-3-yl)-6-methyl-phenoxy)-N-(2-hydroxyethyl)acetamide] | -75 | 
14 | 0.07 | CCc1cc(-c2noc(-c3cc(OC)nc(C4CCCC4)c3)n2)cc(C)c1OC[C@@H](O)CNCC(=O)O [Example 9, (S)-2-((3-(4-(5-(2-Cyclopentyl-6-methoxypyridin-4-yl)-1,2,4-oxadiazol-3-yl)-2-ethyl-6-methylphenoxy)-2-hydroxypropyl)amino)acetic acid] | -72 | 
15 | 7.2 | CCc1cc(-c2nnc(-c3cc(OC)nc(C4CCCC4)c3)o2)cc(C)c1OCC(=O)O [Example 60, 2-(4-(5-(2-Cyclopentyl-6-methoxypyridin-4-yl)-1,3,4-oxadiazol-2-yl)-2-ethyl-6-methylphenoxy)acetic acid] | -35 | 
16 | 0.265 | CCc1cc(-c2noc(-c3cc(OC)nc(C4CCCC4)c3)n2)cc(C)c1OCCCNC(=O)CO [Example 29, N-(3-(4-(5-(2-Cyclopentyl-6-methoxypyridin-4-yl)-1,2,4-oxadiazol-3-yl)-2-ethyl-6-methylphenoxy)propyl)-2-hydroxyacetamide] | -76 | 
17 | 0.0716 | CCc1cc(-c2noc(-c3cc(OC)nc(C4CCCC4)c3)n2)cc(C)c1OCCCNC(=O)CC(=O)O [Example 31, 3-((3-(4-(5-(2-Cyclopentyl-6-methoxypyridin-4-yl)-1,2,4-oxadiazol-3-yl)-2-ethyl-6-methylphenoxy)propyl)amino)-3-oxopropanoic acid] | -68 | 
18 | 0.3 | CCc1cc(-c2noc(-c3cc(OC)nc(C4CCCC4)c3)n2)cc(C)c1OC[C@@H](O)CN1CC(C(=O)O)C1 [Example 12, (S)-1-(3-(4-(5-(2-Cyclopentyl-6-methoxypyridin-4-yl)-1,2,4-oxadiazol-3-yl)-2-ethyl-6-methylphenoxy)-2-hydroxypropyl)azetidine-3-carboxylic acid] | -61 | 
19 | 10.3 | CCc1cc(-c2noc(-c3cc(OC)nc(C4CCCC4)c3)n2)cc(C)c1OCCNCC(O)CO (racemic) [Example 27, rac-3-((2-(4-(5-(2-Cyclopentyl-6-methoxypyridin-4-yl)-1,2,4-oxadiazol-3-yl)-2-ethyl-6-methylphenoxy)ethyl)amino)propane-1,2-diol] | -42 | 
20 | 0.501 | CCc1cc(-c2noc(-c3cc(OC)nc(C4CCCC4)c3)n2)cc(C)c1OCCCN(C)C(=O)CC(=O)O [Example 33, 3-((3-(4-(5-(2-Cyclopentyl-6-methoxypyridin-4-yl)-1,2,4-oxadiazol-3-yl)-2-ethyl-6-methylphenoxy)propyl)(methyl)amino)-3-oxopropanoic acid] | -78 | 
21 | 0.05 | CCc1cc(-c2nc(-c3cc(OC)nc(C4CCCC4)c3)no2)cc(C)c1OCCNCCC(=O)O [Example 57, 3-((2-(4-(3-(2-Cyclopentyl-6-methoxypyridin-4-yl)-1,2,4-oxadiazol-5-yl)-2-ethyl-6-methylphenoxy)ethyl)amino)propanoic acid] | -74 | 
22 | 2.7 | CCc1cc(-c2nc(-c3cc(OC)nc(C4CCCC4)c3)no2)cc(C)c1OCCCNCC(=O)O [Example 59, 2-((3-(4-(3-(2-Cyclopentyl-6-methoxypyridin-4-yl)-1,2,4-oxadiazol-5-yl)-2-ethyl-6-methylphenoxy)propyl)amino)acetic acid] | -82 | 
